Values of other authors as cited in patent publication US20240398698A1, “CONAZOLANTIFUNGAL KETOE IN SOLUTION OR SUSPENSION FOR USE IN THE HUMAN EAR” (priority 2023, published 2024).

For `CC(=O)N1CCN(c2ccc(OCC3COC(Cn4ccnc4)(c4ccc(Cl)cc4Cl)O3)cc2)CC1` (stereo not drawn) [Ketoconazole, ketoconazole], the “solubility in acetic acid” value (acetic acid) is given as “not soluble”, the solubility in alcohol (alcohol) is given as “soluble” and the solubility in water (water) is given as “poorly soluble”.
